Test results: patent publication US12459898B2, “Polycationic amphiphiles as antimicrobial agents and methods using same” (Temple University-Of The Commonwealth System of Higher …, priority 2016, dated 2025)
≈ marks a conversion by molar mass, not a printed value.

How the values were obtained:
Assay type in all cases: cell-based
[1] = test system: methicillin-susceptible Staphylococcus aureus MSSA (SH1000); assay: Minimum inhibitory concentration (MIC), S. aureus; settings: MH media, 37° C., 72 hours, visual growth
Experimental: (§1) As used herein, the term “minimum inhibitory concentration (MIC)” refers to the lowest concentration of an antimicrobial agent that will inhibit the visible growth of a microorganism after overnight incubation. MIC values against bacteria, for example, the Gram-positive Staphylococcus aureus and Enterococcus faecalis and the Gram-negative Escherichia coli and Pseudomonas aeruginosa were determined by standard methods. See also P. A. Wayne, Methods for Dilution Antimicrobial Tests for Bacteria that Grow Aerobically; Approved Standard, Ninth Edition, 2012, CLSI Document M07-A9, Vol. 32 No. 2, which is incorporated by reference herein in its entirety.
(§2) For all biological assays, laboratory strains of methicillin-susceptible Staphylococcus aureus MSSA (SH1000), Enterococcus faecalis (OG1RF), Escherichia coli (MC4100), Pseudomonas aeruginosa (PAO1), community-acquired methicillin-resistant Staphylococcus aureus CA-MRSA (USA300-0114), and hospital-acquired methicillin-resistant Staphylococcus aureus HA-MRSA (ATCC 33591) were grown with shaking at 37° C. overnight from freezer stocks in 10 mL of the indicated media.
(§3) Compounds were serially diluted two-fold from stock solutions to yield twelve test concentrations. Overnight S. aureus, E. faecalis, E. coli, P. aeruginosa, USA300-0114 (CA-MRSA), and ATCC 33591 (HA-MRSA) cultures diluted to ca. 10^6 cfu/mL in MH media and 100 μL were inoculated into each well of a U-bottom 96-well plate (BD Biosciences, BD 351177) containing 100 μL of compound solution. Plates were incubated statically at 37° C. for 72 hours upon which time wells were evaluated visually for bacterial growth. The MIC was determined as the lowest concentration of compound resulting in no bacterial growth visible to the naked eye, based on the majority of three independent experiments. Aqueous DMSO controls were conducted as appropriate for each compound.

[2] = test system: Enterococcus faecalis (OG1RF); assay: Minimum inhibitory concentration (MIC), E. faecalis; settings: MH media, 37° C., 72 hours, visual growth
Experimental: as §1, §2, §3

[3] = test system: Escherichia coli (MC4100); assay: Minimum inhibitory concentration (MIC), E. coli; settings: MH media, 37° C., 72 hours, visual growth
Experimental: as §1, §2, §3

[4] = test system: Pseudomonas aeruginosa (PAO1); assay: Minimum inhibitory concentration (MIC), P. aeruginosa; settings: MH media, 37° C., 72 hours, visual growth
Experimental: as §1, §2, §3

[5] = test system: community-acquired methicillin-resistant Staphylococcus aureus CA-MRSA (USA300-0114); assay: Minimum inhibitory concentration (MIC), CA-MRSA; settings: MH media, 37° C., 72 hours, visual growth
Experimental: as §1, §2, §3

[6] = test system: hospital-acquired methicillin-resistant Staphylococcus aureus HA-MRSA (ATCC 33591); assay: microbe, parasite or virus in culture; settings: for MIC: Staphylococcus aureus, 72 h, read-out: MIC, HA-MRSA
Experimental: as §1, §2, §3

[7] = test system: red blood cells (mechanically defibrinated sheep blood); assay: Red blood cell (RBC) lysis assay (Lysis20); settings: for Lysis20 (highest concentration at which <20% of RBCs are lysed): sheep RBCs in PBS, 37° C., 1 hour, absorbance 540 nm, Table 1
Source text: These assessments followed standard protocols (Minbiole et al., 2016, Tetrahedron, 72: 3559-3566, Forman et al., 2016, ChemMedChem, 11: 1401-1405, Forman et al., 2016, ChemMedChem, 11: 958-962, Mitchell et al., 2015, ChemBioChem, 16: 2299-2303, Jennings et al., 2015, ACS Inf. Dis, 1: 304-308, Paniak et al., 2014, Bioorg. Med. Chem. Lett, 24: 5824-5828, Ator et al., 2014, Bioorg. Med. Chem. Lett, 24: 3706-3709, Jennings et al., 2014, ChemBioChem, 15: 2211-2215, Black et al., 2014, Bioorg. Med. Chem. Lett, 24, 99-102, Grenier et al., 2012, Bioorg. Med. Chem. Lett, 22: 4055-4058).
RBC lysis assays were performed on mechanically defibrinated sheep blood (Hemostat Labs: DSB030). 1.5 mL of blood was placed into a microcentrifuge tube and centrifuged at 10,000 rpm for ten minutes. The supernatant was removed and the cells were resuspended with 1 mL of phosphate-buffered saline (PBS). The suspension was centrifuged as previously, the supernatant was removed, and cells were resuspended two more times. The final cell suspension was diluted twentyfold with PBS. The twentyfold suspension dilution was then aliquoted into microcentrifuge tubes containing compound serially diluted in PBS. TritonX (1% by volume) served as a positive control (100% lysis marker) and sterile PBS served as a negative control (0% lysis marker). Samples were then placed in an incubator at 37° C. and shaken at 200 rpm. After 1 hour, the samples were centrifuged at 10,000 rpm for ten minutes. The absorbance of the supernatant was measured with a UV spectrometer at a 540 nm wavelength.

SMILES | MIC [1] | MIC [2] | MIC [3] | MIC [4] | MIC [5] | MIC [6] | antibacterial resistance (increase in MIC) ([6]; strain not given, Table 1 fits HA-MRSA vs S. aureus) | Lysis20 (highest concentration at which <20% of RBCs are lysed) [7] | lysis20 (hemolysis activity) ([7]; sheep RBCs, values restated in text)
CCCCCCCC[n+]1ccc(CCCc2cc[n+](CCCCCCCC)cc2)cc1 [2Pyr-8,8] | 8 µM | 63 µM | 32 µM | > 250 µM | 16 µM | 63 µM | 8 fold | 125 μm | 
CCCCCCCCCC[n+]1ccc(CCCc2cc[n+](CCCCCCCCCC)cc2)cc1 [2Pyr-10,10] | 0.5 µM | 1 µM | 0.5 µM | 16 µM | 0.25 µM | 1 µM |  | 16 μm | 
CCCCCCCCCCCC[n+]1ccc(CCCc2cc[n+](CCCCCCCCCCCC)cc2)cc1 [2Pyr-12,12] | 0.5 µM | 0.5 µM | 1 µM | 4 µM | 0.25 µM | 0.5 µM |  | 4 μm | 4 µM
CCCCCCCCCCCCC[n+]1ccc(CCCc2cc[n+](CCCCCCCCCCCCC)cc2)cc1 [2Pyr-13,13] | 0.5 µM | 0.5 µM | 1 µM | 8 µM | 0.25 µM | 0.5 µM |  | 16 μm | 
CCCCCCCCCCCCCC[n+]1ccc(CCCc2cc[n+](CCCCCCCCCCCCCC)cc2)cc1 [2Pyr-14,14] | 8 µM | 1 µM | 4 µM | 250 µM | 2 µM | 2 µM |  | 63 μm | 
CCCCCCCCCCCCCCCC[n+]1ccc(CCCc2cc[n+](CCCCCCCCCCCCCCCC)cc2)cc1 [2Pyr-16,16] | 4 µM | 8 µM | 63 µM | > 250 µM | 4 µM | 8 µM |  | 63 μm | 
CCCCCCCCCCCCCCCCCC[n+]1ccc(CCCc2cc[n+](CCCCCCCCCCCCCCCCCC)cc2)cc1 [2Pyr-18,18] | 8 µM | 8 µM | > 250 µM | > 250 µM | 4 µM | 16 µM |  | 32 μm | 
c1cc(CCCc2ccncc2)ccn1 [Compound 2Pyr, 1,3-di-(4-pyridyl)propane, reference compound] | > 250 µM | > 250 µM | > 250 µM | > 250 µM | > 250 µM | > 250 µM |  | >250 μm | 
c1cncc(CN(Cc2cccnc2)Cc2cccnc2)c1 [Compound M3Pyr, reference compound] | 250 µM (≈ 72.6 µg/mL) | > 250 µM | > 250 µM | > 250 µM | 250 µM (≈ 72.6 µg/mL) | 250 µM (≈ 72.6 µg/mL) |  | >250 μm | 
c1cc(CN(Cc2ccncc2)Cc2ccncc2)ccn1 [Compound P3Pyr, reference compound] | > 250 µM | > 250 µM | > 250 µM | > 250 µM | > 250 µM | > 250 µM |  | 125 μm | 
CCCCCCCC[n+]1cccc(CN(Cc2ccc[n+](CCCCCCCC)c2)Cc2ccc[n+](CCCCCCCC)c2)c1 [M3Pyr-8,8,8] | 2 µM | 8 µM | 8 µM | 32 µM | 1 µM | 2 µM |  | >250 μm | 
CCCCCCCCCC[n+]1cccc(CN(Cc2ccc[n+](CCCCCCCCCC)c2)Cc2ccc[n+](CCCCCCCCCC)c2)c1 [M3Pyr-10,10,10] | 0.5 µM | 1 µM | 1 µM | 2 µM | 0.5 µM | 0.5 µM |  | 4 μm | 
CCCCCCCCCCC[n+]1cccc(CN(Cc2ccc[n+](CCCCCCCCCCC)c2)Cc2ccc[n+](CCCCCCCCCCC)c2)c1 [M3Pyr-11,11,11] | 0.5 µM | 1 µM | 1 µM | 4 µM | 0.5 µM | 0.5 µM |  | 4 μm | 
CCCCCCCCCCCC[n+]1cccc(CN(Cc2ccc[n+](CCCCCCCCCCCC)c2)Cc2ccc[n+](CCCCCCCCCCCC)c2)c1 [M3Pyr-12,12,12] | 1 µM | 1 µM | 1 µM | 8 µM | 0.5 µM | 1 µM |  | 4 μm | 
CCCCCCCCCCCCC[n+]1cccc(CN(Cc2ccc[n+](CCCCCCCCCCCCC)c2)Cc2ccc[n+](CCCCCCCCCCCCC)c2)c1 [M3Pyr-13,13,13] | 1 µM | 1 µM | 2 µM | 8 µM | 0.25 µM | 0.5 µM |  | 2 μm | 
CCCCCCCCCCCCCC[n+]1cccc(CN(Cc2ccc[n+](CCCCCCCCCCCCCC)c2)Cc2ccc[n+](CCCCCCCCCCCCCC)c2)c1 [M3Pyr-14,14,14] | 2 µM | 2 µM | 4 µM | 32 µM | 1 µM | 1 µM |  | 4 μm | 
CCCCCCCCCCCCCCCC[n+]1cccc(CN(Cc2ccc[n+](CCCCCCCCCCCCCCCC)c2)Cc2ccc[n+](CCCCCCCCCCCCCCCC)c2)c1 [M3Pyr-16,16,16] | 2 µM | 8 µM | 125 µM | ≥ 250 µM | 4 µM | 2 µM |  | 4 μm | 
CCCCCCCCCCCCCCCCCC[n+]1cccc(CN(Cc2ccc[n+](CCCCCCCCCCCCCCCCCC)c2)Cc2ccc[n+](CCCCCCCCCCCCCCCCCC)c2)c1 [M3Pyr-18,18,18] | 8 µM | 32 µM | 63 µM | > 250 µM | 4 µM | 4 µM |  | 8 μm | 
